This note sets out measurements from ChEMBL document CHEMBL3046856, “Synthesis and fungicidal activity of novel pimprinine analogues” (2012).

What all share (type): functional
Test [1] deals with Pythium dissimile. Description: Fungicidal activity against Pythium dissimile grown on compound supplemented artificial media assessed as control of disease or pathogen at 2 ppm measured after 5 to 14 days by artificial media assay.
A further test has as its system Uromyces viciae-fabae. Description: Fungicidal activity against Uromyces viciae-fabae infected compound pre-treated bean leaf pieces assessed as control of disease or pathogen at 100 ppm measured after 5 to 14 days by leaf-piece assay.
Test [2] has as its system Pythium dissimile. The experiment in a line: Fungicidal activity against Pythium dissimile grown on compound supplemented artificial media assessed as control of disease or pathogen at 20 ppm measured after 5 to 14 days by artificial media assay.
The subject of test [3] is Botrytis cinerea. Description: Fungicidal activity against Botryotinia fuckeliana grown on compound supplemented artificial media assessed as control of disease or pathogen at 20 ppm measured after 5 to 14 days by artificial media assay.
Test [4] in a line: Fungicidal activity against Zymoseptoria tritici infected on compound pre-treated wheat leaf pieces assessed as control of disease or pathogen at 100 ppm measured after 5 to 14 days by leaf-piece assay.
Test [5] concerns Botrytis cinerea. The experiment in a line: Fungicidal activity against Botryotinia fuckeliana grown on compound supplemented artificial media assessed as control of disease or pathogen at 2 ppm measured after 5 to 14 days by artificial media assay.
In test [6] the test system is Alternaria solani. Description: Fungicidal activity against Alternaria solani grown on compound supplemented artificial media assessed as control of disease or pathogen at 2 ppm measured after 5 to 14 days by artificial media assay.
The subject of test [7] is Alternaria solani. Description: Fungicidal activity against Alternaria solani grown on compound supplemented artificial media assessed as control of disease or pathogen at 20 ppm measured after 5 to 14 days by artificial media assay.

In the case of `COCC(=O)n1cc(-c2ocnc2Br)c2ccccc21`, the Activity is 0% with Pythium dissimile [1]; 77% in the test on Uromyces viciae-fabae; 77% in the test on Pythium dissimile [2]; 99% in the test on Botrytis cinerea [3]; 0% in test [4]; 0% in the test on Botrytis cinerea [5]. Further, the Activity in the test with Alternaria solani [6] came to 0%; in the test on Alternaria solani [7], 99%.

Turning to `Clc1ncoc1-c1cn(CC2CC2)c2ccccc12`, the Activity in the test on Pythium dissimile [1] came to 0%; in the test on Uromyces viciae-fabae it was 55%; in the test on Pythium dissimile [2], 99%; with Botrytis cinerea [3], 0%; in test [4], 33%; in the test with Botrytis cinerea [5], 0%. For the same compound, the Activity in the test with Alternaria solani [6] and in the test on Alternaria solani [7] was 0% each time.

As for `O=C(C(Cl)Cl)n1cc(-c2ocnc2Br)c2ccccc21`, the Activity is 0% in the test with Pythium dissimile [1]; 27% in the test with Uromyces viciae-fabae; 77% in the test with Pythium dissimile [2]; 99% with Botrytis cinerea [3]; 0% in test [4]; 0% in the test on Botrytis cinerea [5]. Also, the Activity with Alternaria solani [6] was determined as 0%; in the test with Alternaria solani [7], 99%.

For `CCn1cc(-c2ocnc2Cl)c2ccccc21`, the Activity with Pythium dissimile [1] is 0%; in the test with Uromyces viciae-fabae it was 99%; with Pythium dissimile [2], 55%; with Botrytis cinerea [3], 0%; in test [4], 0%; in the test on Botrytis cinerea [5], 0%. Besides, the Activity in the test with Alternaria solani [6] and with Alternaria solani [7] was 0% throughout.

For `O=C(C(Cl)Cl)n1cc(-c2ocnc2Cl)c2ccccc21`, the Activity in the test on Pythium dissimile [1] was found to be 0%; with Uromyces viciae-fabae, 0%; in the test on Pythium dissimile [2], 99%; with Botrytis cinerea [3], 99%; in test [4] it was 0%; in the test on Botrytis cinerea [5], 0%. Also, the Activity with Alternaria solani [6] turned out to be 0%; in the test on Alternaria solani [7] it was 99%.

On to `O=C(CCl)n1cc(-c2ocnc2Br)c2ccccc21`, for which the Activity in the test on Pythium dissimile [1] came out at 0%; in the test with Uromyces viciae-fabae, 49%; in the test on Pythium dissimile [2], 99%; in the test on Botrytis cinerea [3], 99%; in test [4] it was 18%; in the test on Botrytis cinerea [5], 0%. In addition, the values for the Activity in the test with Alternaria solani [6] and in the test on Alternaria solani [7] were 27% and 99%, respectively.

In the case of `Cn1cc(-c2ocnc2Br)c2ccccc21`, the Activity with Pythium dissimile [1] was 0%; in the test on Uromyces viciae-fabae it was 55%; with Pythium dissimile [2] it was 0%; in the test with Botrytis cinerea [3], 0%; in test [4] it was 0%; with Botrytis cinerea [5], 0%. Further, the Activity with Alternaria solani [6] and with Alternaria solani [7] was 0% in each case.

As for `CCC(=O)n1cc(-c2ocnc2Br)c2ccccc21`, the Activity (in the test with Pythium dissimile [1]; with Uromyces viciae-fabae; with Pythium dissimile [2]; with Botrytis cinerea [3]; in test [4]; in the test with Botrytis cinerea [5]) was 0% each time. The Activity in the test with Alternaria solani [6] and in the test with Alternaria solani [7] was 0% each time.
